For one molecule, Ki results are on record in BindingDB's records for doi:10.1016/S0960-894X(01)81014-3 (1993).

This experiment in a line: Compound was evaluated for binding affinity against Opioid receptor delta 1 binding assay: Inactive.

As a reminder, the Ki is a dissociation constant, usually derived from enzyme kinetics or from competition with a known ligand.

Residues, ends and D or L forms follow the SMILES beside them. *: point of attachment. Adamantane1carbonyl = O=C(C12CC3CC(CC(C3)C1)C2)* Where only a bound is given, the exact number is not on record here.

`CC[C@H](C)[C@H](NC(=O)[C@H](Cc1ccc(O)cc1)NC(=O)[C@@H]1CCCN1C(=O)[C@H](CCCCN)NC(=O)C12CC3CC(CC(C3)C1)C2)C(=O)N[C@@H](CC(C)C)C(=O)O` [(S)-2-{(2S,3S)-2-[(S)-2-[((S)-1-{(S)-2-[(Adamantane-1-carbonyl)-amino]-6-amino-hexanoyl}-pyrrolidine-2-carbonyl)-amino]-3-(4-hydroxy-phenyl)-propionylamino]-3-methyl-pentanoylamino}-4-methyl-pentanoic acid] (Adamantane1carbonyl-KPYIL-OH) yielded an inhibition constant (Ki) greater than 100 µM.
